Patent publication US12201592B2, “Combinations of IRS/STAT3 dual modulators and anti-cancer agents for treating cancer” (TYRNOVO LTD., priority 2015, dated 2025)
Where two headings read alike, the source gives them in different places.

Tests used:
[1] = tested on: tumor pieces of pancreatic cancer liver metastasis PDX; assay: Culture of tumor pieces excised at the end of the experiment (Example 10); format: cell-based; details: three tumors per group; fixed and stained nine days later
Experimental: At the end of the experiment, tumor pieces, similar in size, from three tumors per group were cultured in separate plates to test their viability and proliferative activity.

[2] = tested on: pancreatic cancer metastasis from the liver; assay: PDX efficacy study with Gemcitabine (Example 10); format: in vivo, NodScid mice
Experimental: Experimental system: Patient-derived xenograft (PDX) of a biopsy of pancreatic cancer metastasis from the liver, subcutaneous implanted into NodScid mice.
• Implantation of pancreatic cancer metastasis from the liver RA_160 tumor biopsy graft (P5) into NodScid mice for efficacy study: Several weeks following implantation of pancreatic cancer liver metastasis biopsy graft in mice, tumor cells (P5) were injected into NodScid mice (generated by in-house breeding), using the same procedure described above. • Onset of tumor growth (palpable tumor mass) was detected ten days following cell injection. A week later (on da0), 19 mice with average tumor size of 90 mm^3 initiated treatments with Gemcitabine 25 mg/kg IP twice a week for 35 days. […] On day21 the average tumor size in Gemcitabine-treated group was ˜5 mm^3 as compared to 1400 mm^3 in the control group. • 42 days following initiation of treatment with Gemcitabine resistance developed and regressed tumors progressed. Four days later 16 mice of the Gemcitabine-treated group with average tumor volume of ˜110 mm^3 were divided to two groups as follows. II. Treatments
Treatment groups, following resistance to Gemcitabine has been acquired, included: • 1. Gemcitabine 25 mg/kg IP twice a week • 2. Gemcitabine 25 mg/kg IP+Compound D 70 mg/kg IV, twice a week.

Mel1617-Pa = assay: Cell proliferation and viability, methylene-blue staining; format: cell-based; details: Homo sapiens, 72 h, melanoma, 3 days exposure
Experimental: (§1) All melanoma cells used and discussed in FIGS. 6-9 and table 1 are from human origin and bearing the mutated BRAF^600K/E.
(§2) Cells were grown in complete medium and treated with inhibitors one day following seeding. 72 hours later, the surviving cells were quantified by methylene blue staining or by WST-1 staining for nonadherent cells (Roche).
(§3) Cells were plated in 96-well plates in 5-10% FCS in medium; a day later exposed to various concentrations of compound A, compound D or OSI-906 and 3 days later stained with methylene-blue and the relative cell number was quantified.

Mel1617-BR = assay: as above; format: cell-based; details: Homo sapiens, 72 h, melanoma, 3 days exposure
Experimental: as §1, §2, §3

451Lu-Pa = assay: as above; format: cell-based; details: Homo sapiens, 72 h, melanoma, 3 days exposure
Experimental: (§4) All cell lines were obtained from the American Type Culture Collection. YUMAC, YURIF, YUSIK (all human melanoma, kindly provided by Prof. Ruth Halaban, Yale University, New Haven, Conn.) were cultured in OptiMEM containing 5% FCS. M571, M2068, M560n (all human melanoma, kindly provided by Dr. Michal Lotem, Hadassah Hospital, Jerusalem, Israel) were maintained in RPMI, DMEM and F12 (1:3:1) containing 10% FCS. 451-Lu (human melanoma) and 451-Lu-BR (PLX4032-resistant melanoma; ref. 32) were maintained in RPMI containing 5% FCS (media for resistant lines contained […] PLX4032). All media were supplemented with 100 U/mL penicillin and […] and all cells were grown at 37° C./5% CO2.
as §1, §2, §3

451Lu-BR = assay: as above; format: cell-based; details: Homo sapiens, 72 h, melanoma, 3 days exposure
Experimental: as §4, §1, §2, §3

HNSCC tumor biopsy = assay: PDX efficacy study, tumor recurrence after Cetuximab±Afatinib (Example 7); format: in vivo, NodScid mice; details: 9 days of treatment; start ~113 mm^3
Experimental: Experimental system: Patient-derived xenograft (PDX) of HNSCC tumor biopsy subcutaneous implanted into NodScid mice.
• Implantation of HNSCC tumor biopsy graft (P6) into NodScid mice for efficacy study: Few months following implantation of frozen HNSCC tumor biopsy graft (P1) in mice, tumor cells (P6) were injected into NodScid mice (generated by in-house breeding), using the same procedure described for implantation of P1. The original biopsy is the same as described above and the P indicates passages (implantation number in mice). • Onset of tumor growth (palpable tumor mass) was detected four days following cell injection. Five days later, treatments initiated in mice which developed tumors sized around 113 mm^3. […] Treatments and Procedures
Treatment groups included: • 1. Vehicle-control: Vehicle (0.5% Hydroxymethyl-cellulose, 0.4% Tween-80) 200 μl PO (5 times/week, qd). • 2. Compound D 70 mg/kg in HPbCD, IV (3 times/week, qod). • 3.
(§6) The length (l) and the width (w) of the tumors were measured 2-4 times a week and the volumes of the tumors were calculated as follows: v=lw^2/2.

PC3 = assay: Cell proliferation and viability, methylene-blue staining; format: cell-based; details: Homo sapiens, PC-3, 72 h; PC3, prostate cancer; 3 days exposure
Experimental: as §2, §3

HepG2 = assay: as above; format: cell-based; details: Homo sapiens, 72 h; HepG2, hepatocarcinoma; 3 days exposure
Experimental: as §2, §3

MM1S = assay: Cell proliferation and viability; format: cell-based; details: Homo sapiens, MM1.S, 72 h, multiple myeloma, 3 days exposure
Experimental: as §2, §3

A375 melanoma cells = assay: Apoptosis after short exposure and wash-out; format: cell-based, human; details: 4 hr exposure, washed; 24 and 48 hr later (FIG. 6C)
Experimental: • Cells were treated as indicated in FIGS. 6-9 and the corresponding figure legends, following overnight serum-starvation (unless indicated differently). When cells were treated with both PLX4032 and compounds A or D, PLX4032 was added 3-4 hr following the compounds. • Cells were lysed with boiling sample buffer (10% glycerol, 50 mmol/L Tris-HCl, pH 6.8, 3% SDS, and 5% 2-mercaptoethanol). Western blot analysis was conducted in 8% SDS-PAGE, using antibodies described below. • Aliquots of cell extracts containing equal amounts of protein were resolved by 8% SDS/PAGE and electroblotted onto nitrocellulose filters. The membranes were blocked with low-fat milk diluted 1:20 in TBST (NaCl/Tris containing 0.2% Tween-20) for 0.5 hr, incubated with Rabbit anti-phosphoY705-Stat3 antibody (Cell signaling cat #9131), Mouse anti-ERK-diphosphorylated-YT (Sigma Aldrich cat #M8159) or anti-PARP antibodies overnight at 4 C in 5% BSA in TBST containing 0.05% azid, washed extensively with TBST and then incubated with horseradish peroxidase-conjugated secondary antibodies for 45 min at room temperature in 5% BSA in TB ST. • Immunoreactive bands were visualized using enhanced chemiluminescence. Membranes were re-blotted with Mouse anti-Stat3 antibody (Transduction labs cat #21320) or with Rabbit anti AKT1/2 (Santa cruz cat #sc-8312) or Anti-Actin as described above. IV. […]

[3] = tested on: phospho-Y705 Stat3 (pSTAT3) in melanoma A375 cells; assay: Immunoblot of Stat3 Y705-phosphorylation in intact cells; format: cell-based, human; details: Homo sapiens, A-375
Experimental: FIGS. 6A-6E. […] A. Human melanoma A375 cells were treated with the indicated concentrations of compounds A or D for 1.3 and 4.5 hr. Cells were lysed and immunoblotted with antibodies against phospho-Y705 Stat3 (pSTAT3) and Stat3. […] B. Cells were treated with 2 μM Compound A and lysed following the indicated times. C. A375 cells were treated with compound D for 4 hr, then washed with medium several times and lysed after 4, 24 and 48 hr of incubation without inhibitors.
(§5) • Cells were treated as indicated in FIGS. 6-9 and the corresponding figure legends, following overnight serum-starvation (unless indicated differently). When cells were treated with both PLX4032 and compounds A or D, PLX4032 was added 3-4 hr following the compounds. • Cells were lysed with boiling sample buffer (10% glycerol, 50 mmol/L Tris-HCl, pH 6.8, 3% SDS, and 5% 2-mercaptoethanol). Western blot analysis was conducted in 8% SDS-PAGE, using antibodies described below. • Aliquots of cell extracts containing equal amounts of protein were resolved by 8% SDS/PAGE and electroblotted onto nitrocellulose filters. The membranes were blocked with low-fat milk diluted 1:20 in TBST (NaCl/Tris containing 0.2% Tween-20) for 0.5 hr, incubated with Rabbit anti-phosphoY705-Stat3 antibody (Cell signaling cat #9131), Mouse anti-ERK-diphosphorylated-YT (Sigma Aldrich cat #M8159) or anti-PARP antibodies overnight at 4 C in 5% BSA in TBST containing 0.05% azid, washed extensively with TBST and then incubated with horseradish peroxidase-conjugated secondary antibodies for 45 min at room temperature in 5% BSA in TB ST. • Immunoreactive bands were visualized using enhanced chemiluminescence. Membranes were re-blotted with Mouse anti-Stat3 antibody (Transduction labs cat #21320) or with Rabbit anti AKT1/2 (Santa cruz cat #sc-8312) or Anti-Actin as described above. IV. Chemotaxis of Peripheral Blood Mononuclear Cells (PBMCs)

[4] = tested on: pStat3 in A375, 451-Lu, Mel1617 cells; assay: Immunoblot of basal and PLX4032-induced pStat3 in PLX4032-sensitive melanoma cells; format: cell-based, human; details: PLX4032 1 μM added 3-4 hr after the compounds (FIG. 7C-E, 8A)
Experimental: FIGS. 7A-7E. […] FIG. 7A. […] FIG. 7B. […] Cells from patients were grown in complete medium and immunoblotted as described above. […] Compounds A/D block the basal and the PLX4032-induced pStat3. Treatment of PLX4032-sensitive human melanoma A375 (C), 451-Lu (D) or Mel1617 (E) cells with 1 μM PLX4032 for 18-24 hr induces a dramatic increase in pStat3. Compounds A (FIG. 7C, D) or D (FIG. 7E) block both the basal and the PLX4032-induced pStat3. OSI-906, an ATP-competitive inhibitor of IGF1R, has no effect on pStat3.
as §5

[5] = tested on: Squamous Cell carcinoma of Head&Neck (SCCHN) tumor biopsy; assay: PDX efficacy study, acquired resistance to Erlotinib (Example 1); details: start ~80 mm^3; Erlotinib 100 mg/kg PO, Compound D 70 mg/kg IV; two weeks
[6] = tested on: Adenoid Cyctic Carcinoma tumor biopsy; assay: PDX efficacy study with Trametinib (Example 9); format: in vivo, NodScid mice; details: day0-day13; start ~65 mm^3; Trametinib 1 mg/kg PO, Compound D 70 mg/kg IV
Source text: Experimental system: Patient-derived xenograft (PDX) of Adenoid Cyctic Carcinoma tumor biopsy subcutaneous implanted into NodScid mice.
• Biopsy: Fresh human primary Adenoid Cyctic Carcinoma tumor biopsy. […] The mice were randomly divided into treatment groups including 5 animals/group. The vehicle-treated group included 4 mice. II. Treatments and Procedures
Treatment groups included: • 1. Vehicle-control: vehicle of Trametinib (5% Propylene Glycol, 0.5% Tween-80, 30% PEG 400 in Sterile DDW) 200 μl PO (5 times/week, qd). • 2. […] Trametinib 1 mg/kg PO (5 times/week, qd). • 4.
as §6

[7] = tested on: pStat3 in 451-LU-BR, Mel1617-BR and patient cells M2068, M571; assay: Immunoblot of pStat3 in BRAFi-resistant melanoma cells; format: cell-based, human
Experimental: FIGS. 8A-8D. […] FIG. 8C. […] FIG. 8D. Cells of various cancer types were treated with compound D for 4 hr in serum-free medium, and 20 hr in medium with or without 10% serum. Asterisks indicate 10 μM concentration for RPMI8226 and HepG2 cells.
as §5

[8] = tested on: Uteral AdenoSarcoma biopsy; assay: PDX efficacy study with Afinitor, repeat (Example 5A); format: in vivo, NodScid mice; details: Afinitor 5 mg/kg PO, Compound D 70 mg/kg IV
Experimental: The experiment described in Example 4 was repeated in purchased mice from Harlan.
• 1. […] Afinitor 5 mg/kg PO, 4 times a week (17 mice). • 4.

HCT15 = assay: Cell proliferation and viability, methylene-blue staining; format: cell-based; details: Homo sapiens, HCT-15, 72 h; HCT15, colon cancer; 3 days exposure
Experimental: as §3, with “Cells were grown in complete medium and treated with inhibitors one day following seeding. 72 hours later, the surviving cells were quantified by methylene blue staining or by WST-1 staining for nonadherent cells (Roche). Cells” for “Cells”

[9] = tested on: colon metastatic carcinoma biopsy; assay: PDX efficacy study with Cetuximab and FOLFIRI (Example 12); format: in vivo, NodScid mice; details: start ~110 mm^3; 14 days
Experimental: Experimental system: Patient-derived xenograft (PDX) of human primary colon metastatic carcinoma biopsy subcutaneous implanted into NodScid mice.
The length (l) and the width (w) of the tumors were measured 4 times a week and the volume of the tumors were calculated as follows: v=lw^2/2.

[10] = tested on: Uteral AdenoSarcoma biopsy; assay: PDX efficacy study with Afinitor (Examples 4 and 5); details: phase I
Experimental: Treatments and Procedures
Treatment groups included: • 1. Control: 20% HPbCD 50 ul IP, qod (6 mice). • 2. […] Afinitor 5 mg/kg PO, qod (15 mice). • 4. Afinitor 5 mg/kg PO (qod)+Compound D 70 mg/kg IV (qod), 6 mice. Afinitor was administered ˜4 hr following Compound D.
All treatments were initiated simultaneously on day0.
The length (l) and the width (w) of the tumors were measured every other day and the volumes of the tumors were calculated as follows: v=lw^2/2.
Following treatments described in phase I (example 4), the mice whose tumors reached the end point were sacrificed, and the following treatments were continued.
• 1. The Afinitor-responder group (group A, open squares) was administered with Afinitor 5 mg/kg PO, qd (8 mice). • 2. The combined treatment group (open circles) continued to get the Afinitor 5 mg/kg PO (qod)+Compound D 70 mg/kg IV (qod) treatment (6 mice). Afinitor was administered ˜4 hr following Compound D. Phase III:
The group was divided to two groups of 4 mice each which received the following treatments on day6 onwards: • The first continued to get Afinitor 5 mg/kg PO, qd (4 mice) • and the second got Afinitor 5 mg/kg PO (qod)+Compound D 70 mg/kg IV (qod) combined treatment (4 mice). Afinitor was administered ˜4 hr following Compound D.

Nc1ccn([C@@H]2O[C@H](CO)[C@@H](O)C2(F)F)c(=O)n1 [Gemcitabine]
proliferative activity of cultured tumor pieces [1]: massive proliferation | average tumor size on day21 ([2]; Gemcitabine 25 mg/kg IP twice a week, control 1400 mm^3): ~5 mm^3 | tumor response on day11 ([2]; Gemcitabine 25 mg/kg IP twice a week, start 90 mm^3): all tumors in Gemcitabine-treated mice regressed | response of Gemcitabine-resistant tumors ([2]; start ~110 mm^3, after resistance was acquired): all tumors treated with Gemcitabine progressed | time from initiation of treatment until resistance developed ([2]; treated for 35 days): 42 days

Oc1cc(CNC(=S)/C=C/c2ccc(O)c(O)c2Br)cc(O)c1O [Compound D]
IC50 (Mel1617-Pa): 0.2 µM | IC50 (Mel1617-BR): 0.3 µM | IC50 (451Lu-Pa): 0.3 µM | IC50 (451Lu-BR): 0.6 µM | tumor response while on treatment (HNSCC tumor biopsy): aggressively progressed | IC50 (PC3): 0.5 µM | IC50 (HepG2): 0.7 µM | IC50 (MM1S): 0.2 µM | cell apoptosis after short exposure (A375 melanoma cells): sufficient to induce cell apoptosis 24 and 48 hr later | IC50 ([3]; A375 cells, 1.3 hr post-treatment (FIG. 6A), read-out: IC50 of inhibition of Stat3 phosphorylation (pStat3)): ~2 µM | IC50 ([3]; A375 cells, 3 hr later (4.5 hr treatment, FIG. 6A), read-out: IC50 of inhibition of Stat3 phosphorylation (pStat3)): < 1 µM | IC50 ([3]; FIG. 6D, read-out: IC50 of dose-dependent inhibition of pStat3): < 1 µM | effect on basal and PLX4032-induced pStat3 levels [4]: block both the basal and the PLX4032-induced levels of pStat3 | tumor response (tumor volume) [5]: has not responded | tumor response, first phase [6]: moderate tumor growth inhibition | effect on Stat3 phosphorylation in PLX4032-resistant melanoma cells ([7]; 451-LU-BR, Mel1617-BR, patient cells M2068 and M571 (FIG. 8A-C)): block Stat3 phosphorylation completely | relative activity on pStat3 in melanoma cells from patients who acquired resistance to PLX4032 ([7]; FIG. 8C): better activity of compound D compared with compound A | effect on tumor growth [8]: no effect on tumor growth | IC50 (HCT15): 0.8 µM | effect on tumor growth [9]: No effect on tumor growth | responder mice [10]: none of the mice responded | effect on tumor growth ([10]; four days, Afinitor 5 mg/kg PO, Compound D 70 mg/kg IV): no significant effect on tumor growth
